US6942966B1, “Methods for processing chemical compounds having reactive functional groups” (ISIS Pharmaceuticals, Inc., priority 1995, dated 2005)

Target: T1, human type II PLA2 (Homo sapiens, UniProt P14555)
T1 construct: made in house; host or cells: baculovirus system
T1 sequence (P14555 21-144): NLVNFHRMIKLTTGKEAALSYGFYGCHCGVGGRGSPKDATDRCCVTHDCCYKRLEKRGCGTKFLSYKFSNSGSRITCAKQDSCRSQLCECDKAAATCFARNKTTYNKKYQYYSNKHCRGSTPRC
Assay: E. coli PLA2 assay (3H-oleic acid labeled E. coli as substrate)
Assay type: biochemical
Details: compounds 33 and 34 assayed as a mixture at 100 μM, 50 μM, and 10 μM (final concentration)
Description: After each round of synthesis as described in the above examples, the resulting pools of compounds are screened for inhibition of human type II PLA2 enzymatic activity. The assay is effected at the conclusion of each round of synthesis to identify the wining pool from that round of synthesis. Concurrently, the libraries additionally can be screened in other in vitro assays to determine further mechanisms of inhibition.
The pools of the macrocyclic libraries are screened for inhibition of PLA2 in the assay using E. coli labeled with ^3H-oleic acid (Franson et al., J. Lipid Res. 1974, 15, 380; and Davidson et al., J. Biol. Chem. 1987, 262, 1698) as the substrate. Type II PLA2 (originally isolated from synovial fluid), expressed in a baculovirus system and partially purified, serves as a source of the enzyme. […] 165 μl of each supernate is then put into a scintillation vial containing 6 ml of scintillant (Scintiverse) and cpms are measured in a Beckman Liquid Scintillation Counter. […]
The compounds were assayed as a mixture at 100 μM, 50 μM, and 10 μM (final concentration). […] Duplicate assay values were averaged, background (no compound, no PLA2) was subtracted and the percentage of the positive control (no compound) was calculated.

Substance	inhibitory activity in E. coli PLA2 assay
1,11,18,28-tetracarboxy-2,10,19,27-tetraaza-7,22-bis-(tosyl)aza-3,26-dioxa-[11.11]pyridinophane [compound 33]	showed inhibitory activity
1,11,18,28-tetracarboxy-2,10,19,27-tetraaza-7,24-bis-(tosyl)aza-3,20-dioxa-[11.11]pyridinophane [compound 34]	showed inhibitory activity
